Common to all, as to assay type: biochemical
The target in one experiment is EGFR WT (Homo sapiens (Human), UniProt P00533). The experiment can be described thus: HotSpot radiometric kinase assay (Reaction Biology), EGFR WT. The note with it: 10 μM ATP. The method in brief: (§1)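 IC50 values come from curve fits of ^33P incorporation captured on P81 filters after acid washing. Kinase reactions ran 120 min at room temperature with 10 μM ATP, added about 20 min after compound. Buffer was Hepes pH 7.5 containing Mg, DTT and 1% DMSO.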

Another experiment addresses EGFR (D770_N771insNPG) (Homo sapiens (Human), UniProt P00533, INS770NPG). Briefly: HotSpot radiometric kinase assay, EGFR (D770_N771insNPG). The note with it: 10 μM ATP, read-out: EGFR (Δ770_N771insNPG) IC50. The method in brief: as §1
Another experiment concerns the target EGFR Δ746-750 mutant (Homo sapiens (Human), UniProt P00533, DEL746-750). The experiment can be described thus: HotSpot radiometric kinase assay, EGFR Δ746-750 mutant. The note with it: 10 μM ATP. Put shortly:
as §1

In experiment [1] the target is EGFR Δ746-750/C797S mutant (Homo sapiens (Human), UniProt P00533, C797S/DEL746-750). The experiment can be described thus: HotSpot radiometric kinase assay, EGFR Δ746-750/C797S mutant. The note with it: 10 μM ATP. The method in brief: as §1
In a further experiment the target is EGFR L858R mutant (Homo sapiens (Human), UniProt P00533, L858R). The experiment can be described thus: HotSpot radiometric kinase assay, EGFR L858R mutant. The note with it: 10 μM ATP. The method in brief: as §1
Chain of EGFR L858R mutant (P00533 25-1210 L858R): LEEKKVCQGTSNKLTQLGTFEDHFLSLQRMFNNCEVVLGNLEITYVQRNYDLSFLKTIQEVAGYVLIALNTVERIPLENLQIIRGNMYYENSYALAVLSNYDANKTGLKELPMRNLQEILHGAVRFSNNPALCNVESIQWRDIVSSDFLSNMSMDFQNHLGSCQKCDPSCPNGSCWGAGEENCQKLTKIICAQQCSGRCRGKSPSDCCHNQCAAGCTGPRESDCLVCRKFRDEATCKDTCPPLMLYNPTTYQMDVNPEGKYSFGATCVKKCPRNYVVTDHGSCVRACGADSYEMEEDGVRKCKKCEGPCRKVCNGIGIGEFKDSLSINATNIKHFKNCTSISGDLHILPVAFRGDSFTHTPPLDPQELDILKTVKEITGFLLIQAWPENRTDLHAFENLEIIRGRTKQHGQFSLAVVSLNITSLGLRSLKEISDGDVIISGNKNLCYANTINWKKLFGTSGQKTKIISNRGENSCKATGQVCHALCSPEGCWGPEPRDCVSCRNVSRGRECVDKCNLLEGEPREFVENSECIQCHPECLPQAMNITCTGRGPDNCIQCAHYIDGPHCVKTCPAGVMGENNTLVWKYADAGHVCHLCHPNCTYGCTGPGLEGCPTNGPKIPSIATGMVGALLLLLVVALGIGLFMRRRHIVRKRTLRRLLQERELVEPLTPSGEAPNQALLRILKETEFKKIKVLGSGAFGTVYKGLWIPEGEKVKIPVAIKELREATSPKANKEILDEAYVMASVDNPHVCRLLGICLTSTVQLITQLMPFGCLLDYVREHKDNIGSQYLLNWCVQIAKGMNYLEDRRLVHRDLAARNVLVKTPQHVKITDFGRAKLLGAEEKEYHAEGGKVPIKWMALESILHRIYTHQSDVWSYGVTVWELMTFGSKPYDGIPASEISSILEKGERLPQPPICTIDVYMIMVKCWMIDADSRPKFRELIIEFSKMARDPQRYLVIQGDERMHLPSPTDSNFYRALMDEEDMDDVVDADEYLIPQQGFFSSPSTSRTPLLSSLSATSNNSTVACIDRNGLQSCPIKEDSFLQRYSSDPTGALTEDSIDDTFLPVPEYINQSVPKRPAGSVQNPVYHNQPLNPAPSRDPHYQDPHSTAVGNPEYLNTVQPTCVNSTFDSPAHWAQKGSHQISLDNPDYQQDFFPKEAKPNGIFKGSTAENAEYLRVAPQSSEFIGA
For another experiment, the target named is EGFR L858R/T790M mutant (Homo sapiens (Human), UniProt P00533, L858R/T790M). Briefly: HotSpot radiometric kinase assay, EGFR L858R/T790M mutant. The note with it: 10 μM ATP. The method in brief: as §1
Experiment [2] has as its target EGFR L858R/T790M/C797S mutant (Homo sapiens (Human), UniProt P00533, C797S/L858R/T790M). The experiment can be described thus: HotSpot radiometric kinase assay, EGFR L858R/T790M/C797S mutant. The note with it: 10 μM ATP. Put shortly:
as §1

Another experiment concerns the target CLK1 (Homo sapiens (Human), UniProt P49759). Briefly: Inhibition of CLK1 kinase activity evaluated at Nanosyn (ADP-Glo). The note with it: ADP-Glo luminescence. The method in brief:
(§2)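 Kinase and substrate in pH 7.5 HEPES buffer (5 mM MgCl2, 0.01% Triton X-100, 0.1% BSA) with compound at 1% DMSO; reaction started with ATP, incubated for an assay-specific time. ADP formed detected by ADP-Glo luminescence; %-inhibition versus DMSO and no-enzyme controls.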

For the next experiment, the target named is CLK2 (Homo sapiens (Human), UniProt P49760). The experiment can be described thus: Inhibition of CLK2 kinase activity evaluated at Nanosyn (ADP-Glo). The note with it: ADP-Glo luminescence. Put shortly:
as §2

The target of the next experiment is CLK3 (Homo sapiens (Human), UniProt P49761). Briefly: Inhibition of CLK3 kinase activity evaluated at Nanosyn (ADP-Glo). The note with it: ADP-Glo luminescence. Put shortly: as §2
Chain of CLK3 (P49761 whole entry): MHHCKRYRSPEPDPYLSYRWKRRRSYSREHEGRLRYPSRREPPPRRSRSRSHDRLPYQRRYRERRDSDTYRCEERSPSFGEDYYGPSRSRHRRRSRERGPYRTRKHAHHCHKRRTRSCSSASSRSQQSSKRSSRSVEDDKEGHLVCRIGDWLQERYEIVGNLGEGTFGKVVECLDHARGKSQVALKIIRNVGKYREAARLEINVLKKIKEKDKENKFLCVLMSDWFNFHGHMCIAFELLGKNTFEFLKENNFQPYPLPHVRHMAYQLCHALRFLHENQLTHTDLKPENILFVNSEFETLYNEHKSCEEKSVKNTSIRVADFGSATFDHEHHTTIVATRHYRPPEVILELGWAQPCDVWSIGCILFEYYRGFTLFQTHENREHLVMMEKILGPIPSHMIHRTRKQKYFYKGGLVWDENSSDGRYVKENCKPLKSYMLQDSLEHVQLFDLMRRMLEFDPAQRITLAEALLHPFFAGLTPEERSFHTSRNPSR
The target in the next experiment is CLK4 (Homo sapiens (Human), UniProt Q9HAZ1). Briefly: Inhibition of CLK4 kinase activity evaluated at Nanosyn (ADP-Glo). The note with it: ADP-Glo luminescence. Put shortly:
as §2

Experimental findings from US20250353864A1, “INDAZOLE CONTAINING MACROCYCLES AND THEIR USE” (BLOSSOMHILL THERAPEUTICS, INC., priority 2022, published 2025) are described below.

Chain of CLK2 (P49760 whole entry): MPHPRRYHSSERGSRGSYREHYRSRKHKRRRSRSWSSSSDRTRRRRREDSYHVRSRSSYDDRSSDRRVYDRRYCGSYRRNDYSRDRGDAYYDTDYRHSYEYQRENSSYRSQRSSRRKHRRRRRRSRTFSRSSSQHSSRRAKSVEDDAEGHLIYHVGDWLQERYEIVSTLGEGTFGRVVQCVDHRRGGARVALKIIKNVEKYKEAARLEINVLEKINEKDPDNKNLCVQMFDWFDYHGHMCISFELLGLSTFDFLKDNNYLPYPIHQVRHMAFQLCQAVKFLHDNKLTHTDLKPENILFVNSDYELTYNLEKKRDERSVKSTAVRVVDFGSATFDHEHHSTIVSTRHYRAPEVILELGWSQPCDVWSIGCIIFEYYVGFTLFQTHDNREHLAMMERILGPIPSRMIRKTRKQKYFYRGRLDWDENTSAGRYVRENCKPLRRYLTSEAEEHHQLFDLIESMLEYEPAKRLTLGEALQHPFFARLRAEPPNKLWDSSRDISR
Chain of EGFR L858R/T790M/C797S mutant (P00533 25-1210 T790M/C797S/L858R): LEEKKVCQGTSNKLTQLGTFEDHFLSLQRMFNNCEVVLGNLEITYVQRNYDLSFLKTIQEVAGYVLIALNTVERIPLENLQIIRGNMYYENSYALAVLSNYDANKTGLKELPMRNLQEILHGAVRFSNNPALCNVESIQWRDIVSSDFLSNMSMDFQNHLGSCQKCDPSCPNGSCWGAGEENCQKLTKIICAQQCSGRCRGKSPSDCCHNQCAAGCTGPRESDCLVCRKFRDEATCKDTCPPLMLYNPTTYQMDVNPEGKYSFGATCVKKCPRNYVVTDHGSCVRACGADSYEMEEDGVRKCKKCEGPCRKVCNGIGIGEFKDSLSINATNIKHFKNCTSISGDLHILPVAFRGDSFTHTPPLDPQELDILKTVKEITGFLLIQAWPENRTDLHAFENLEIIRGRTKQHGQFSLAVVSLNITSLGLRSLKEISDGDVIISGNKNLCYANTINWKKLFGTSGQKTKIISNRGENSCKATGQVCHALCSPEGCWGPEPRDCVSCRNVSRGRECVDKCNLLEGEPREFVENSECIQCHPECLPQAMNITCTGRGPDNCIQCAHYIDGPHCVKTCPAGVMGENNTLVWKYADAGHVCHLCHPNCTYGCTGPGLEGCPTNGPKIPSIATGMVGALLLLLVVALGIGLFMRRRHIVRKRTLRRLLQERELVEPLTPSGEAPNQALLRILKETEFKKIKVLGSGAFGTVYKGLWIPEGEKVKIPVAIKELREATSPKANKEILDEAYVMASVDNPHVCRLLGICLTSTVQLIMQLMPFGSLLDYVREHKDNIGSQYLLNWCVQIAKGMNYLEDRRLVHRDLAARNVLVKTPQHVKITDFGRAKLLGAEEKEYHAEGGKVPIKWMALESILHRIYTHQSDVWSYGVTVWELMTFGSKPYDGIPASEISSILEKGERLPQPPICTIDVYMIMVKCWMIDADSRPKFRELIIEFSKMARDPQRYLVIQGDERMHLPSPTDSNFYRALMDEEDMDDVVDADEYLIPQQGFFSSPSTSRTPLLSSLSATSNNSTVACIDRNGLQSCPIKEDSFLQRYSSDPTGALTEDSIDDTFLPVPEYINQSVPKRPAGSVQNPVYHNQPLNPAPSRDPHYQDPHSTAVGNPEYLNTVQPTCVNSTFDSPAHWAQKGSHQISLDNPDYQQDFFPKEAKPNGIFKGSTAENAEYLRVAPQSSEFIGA
Chain of EGFR (D770_N771insNPG) (P00533 other isoform, or with tags, fused parts or gaps del 1-668/ins NPG behind 770 limits assumed): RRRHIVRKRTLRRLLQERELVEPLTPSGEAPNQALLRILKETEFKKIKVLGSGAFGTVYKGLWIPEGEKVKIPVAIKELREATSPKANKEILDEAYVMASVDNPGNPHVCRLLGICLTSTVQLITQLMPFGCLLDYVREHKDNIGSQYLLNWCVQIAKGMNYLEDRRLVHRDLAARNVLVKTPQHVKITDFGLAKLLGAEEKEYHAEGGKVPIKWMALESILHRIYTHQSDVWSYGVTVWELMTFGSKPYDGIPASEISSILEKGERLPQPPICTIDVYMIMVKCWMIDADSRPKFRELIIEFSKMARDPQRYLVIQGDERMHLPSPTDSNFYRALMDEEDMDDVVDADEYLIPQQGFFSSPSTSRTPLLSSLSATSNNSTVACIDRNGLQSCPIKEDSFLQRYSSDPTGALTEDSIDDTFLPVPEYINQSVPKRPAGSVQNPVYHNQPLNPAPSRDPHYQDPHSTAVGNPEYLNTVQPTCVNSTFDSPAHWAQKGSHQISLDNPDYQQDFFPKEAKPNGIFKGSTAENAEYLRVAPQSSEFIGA
Chain of CLK1 (P49759 whole entry): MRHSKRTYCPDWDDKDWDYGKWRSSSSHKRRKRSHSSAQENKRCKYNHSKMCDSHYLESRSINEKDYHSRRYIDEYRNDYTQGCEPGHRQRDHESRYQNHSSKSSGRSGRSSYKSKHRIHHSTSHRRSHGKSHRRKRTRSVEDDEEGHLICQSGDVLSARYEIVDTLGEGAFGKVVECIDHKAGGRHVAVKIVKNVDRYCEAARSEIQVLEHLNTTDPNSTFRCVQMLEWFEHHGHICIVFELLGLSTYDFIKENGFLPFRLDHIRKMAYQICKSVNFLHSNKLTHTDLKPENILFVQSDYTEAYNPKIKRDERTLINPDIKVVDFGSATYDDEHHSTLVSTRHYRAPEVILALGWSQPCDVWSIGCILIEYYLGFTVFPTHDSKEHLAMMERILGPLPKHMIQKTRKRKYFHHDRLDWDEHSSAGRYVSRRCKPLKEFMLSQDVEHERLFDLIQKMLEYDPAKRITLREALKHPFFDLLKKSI
Chain of CLK4 (Q9HAZ1 whole entry): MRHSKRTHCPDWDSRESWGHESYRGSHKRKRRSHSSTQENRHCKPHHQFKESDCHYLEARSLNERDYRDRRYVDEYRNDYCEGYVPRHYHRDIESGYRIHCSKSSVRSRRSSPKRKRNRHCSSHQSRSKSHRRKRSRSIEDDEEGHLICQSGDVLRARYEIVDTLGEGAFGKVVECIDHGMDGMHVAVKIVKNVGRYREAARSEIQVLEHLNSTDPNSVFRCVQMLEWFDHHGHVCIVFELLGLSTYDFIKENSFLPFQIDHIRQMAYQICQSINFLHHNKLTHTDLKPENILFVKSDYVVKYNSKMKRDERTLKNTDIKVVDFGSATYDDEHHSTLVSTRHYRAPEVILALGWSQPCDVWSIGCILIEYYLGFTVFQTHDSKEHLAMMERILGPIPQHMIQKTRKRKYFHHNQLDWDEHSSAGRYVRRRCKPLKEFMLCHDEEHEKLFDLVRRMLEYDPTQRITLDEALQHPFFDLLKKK

For `C[C@H]1CN(C)Cc2onc(C3CC3)c2/C=C/c2n[nH]c3ccc(cc23)-c2cnn(C)c2O1` [Example 173, (10S,17E)-16-cyclopropyl-8,10,12-trimethyl-2,8,10,11,12,13-hexahydro-3,5-etheno[1,2]oxazolo[5,4-f]dipyrazolo[3,4-j:4′,3′-n][1,4]oxazacyclopentadecine], the IC50 was more than 1000 nM against EGFR WT; more than 1000 nM at EGFR (D770_N771insNPG); 533 nM against EGFR Δ746-750 mutant; 127 nM in experiment [1]; 513 nM against EGFR L858R mutant; 45.5 nM against EGFR L858R/T790M mutant. Moreover, the IC50 was 27.4 nM in [2]; 0.7 nM at CLK1; 0.89 nM on CLK2; 1000 nM at CLK3; 1.26 nM at CLK4.
For the compound `CCOc1nn(C)c2c1/C=C/c1n[nH]c3ccc(cc13)-c1cnn(C)c1O[C@@H]1CCCN(C2)C1` [Example 160, (10R,19E)-18-ethoxy-8,16-dimethyl-2,8,10,11,12,13,15,16-octahydro-3,5-etheno-10,14-methanotripyrazolo[3,4-h:3′,4′-l:4″,3″- p][1,6]oxazacycloheptadecine], the IC50 against EGFR WT came out at 63 nM; at EGFR (D770_N771insNPG), 246 nM; against EGFR Δ746-750 mutant it was 13.6 nM; in experiment [1], 19.5 nM; against EGFR L858R mutant, 34.4 nM; against EGFR L858R/T790M mutant it was 1.42 nM. For the same compound, the IC50 in experiment [2] was 1.08 nM; at CLK1, 0.22 nM; at CLK2, 0.3 nM; on CLK3 it was 38.2 nM; on CLK4, 0.41 nM.
For the compound `CCOc1nn(CCO)c2c1/C=C/c1n[nH]c3ccc(cc13)-c1cnn(C)c1O[C@@H]1CCCN(C2)C1` [Example 137, 2-[(10R,19E)-18-ethoxy-8-methyl-2,10,11,12,13,15-hexahydro-3,5-etheno-10,14-methanotripyrazolo[3,4-h:3′,4′-l:4″,3″-p][1,6]oxazacycloheptadecin-16(8H)-yl]ethan-1-ol], the IC50 at EGFR WT is 55.3 nM; on EGFR (D770_N771insNPG), 129 nM; against EGFR Δ746-750 mutant it was 6.59 nM; in experiment [1] it was 4.8 nM; against EGFR L858R mutant it was 7.8 nM; at EGFR L858R/T790M mutant, 0.6 nM. Further, the IC50 in experiment [2] is 1.02 nM; on CLK1 it was 1.37 nM; at CLK2 it was 2.13 nM; on CLK3, 79.2 nM; at CLK4, 1.55 nM.
As for `CCn1ncc2c1O[C@@H](C)CN(C)Cc1c(c(OC(C)C)nn1CCO)/C=C/c1n[nH]c3ccc-2cc13` [Example 169, 2-{(10S,17E)-8-ethyl-10,12-dimethyl-16-[(propan-2-yl)oxy]-2,8,10,11,12,13-hexahydro-14H-3,5-ethenotripyrazolo[3,4-f:3′,4′-j:4″,3″- n][1,4]oxazacyclopentadecin-14-yl}ethan-1-ol], the IC50 against EGFR WT is 19.3 nM; at EGFR (D770_N771insNPG) it was 36.1 nM; against EGFR Δ746-750 mutant, 3.24 nM; in experiment [1], 1.6 nM; against EGFR L858R mutant it was 2.01 nM; against EGFR L858R/T790M mutant it was 0.48 nM. Also, the IC50 in experiment [2] came to 1.26 nM; on CLK1, 0.47 nM; on CLK2, 0.49 nM; at CLK3, 346 nM; on CLK4 it was 1.13 nM.
For `CC(C)Oc1nn(CCO)c2c1/C=C/c1n[nH]c3ccc(cc13)-c1cnn(C)c1O[C@H](C)CN(C1CC1)C2` [Example 212, 2-{(10R,17E)-12-cyclopropyl-8,10-dimethyl-16-[(propan-2-yl)oxy]-2,8,10,11,12,13-hexahydro-14H-3,5-ethenotripyrazolo[3,4-f:3′,4′-j:4″,3″- n][1,4]oxazacyclopentadecin-14-yl}ethan-1-ol], the IC50 was found to be 154 nM at EGFR WT; 139 nM at EGFR (D770_N771insNPG); 16.9 nM on EGFR Δ746-750 mutant; 3.87 nM in experiment [1]; 52.3 nM at EGFR L858R mutant; 0.57 nM against EGFR L858R/T790M mutant. In addition, the IC50 was 0.42 nM in experiment [2]; 5.27 nM at CLK1; 7.14 nM at CLK2; 237 nM on CLK3; 5.31 nM at CLK4.
On to `CC(C)Oc1nn(CCO)c2c1/C=C/c1n[nH]c3ccc(cc13)-c1cnn(C)c1O[C@@H](C)[C@H]1CCCN1C2` [Example 252, 2-[(8aR,9S,19E)-9,11-dimethyl-1-[(propan-2-yl)oxy]-7,8,8a,9,11,17-hexahydro-6H-14,16-ethenotripyrazolo[3,4-f:3′,4′-j:4″,3″-n]pyrrolo[2,1-c][1,4]oxazacyclopentadecin-3(4H)-yl]ethan-1-ol], for which the IC50 against EGFR WT was 4.74 nM; on EGFR (D770_N771insNPG), 15.7 nM; against EGFR Δ746-750 mutant, 1.31 nM; in experiment [1], 2.29 nM; on EGFR L858R mutant, 2.38 nM; at EGFR L858R/T790M mutant it was 1.91 nM. Moreover, the IC50 in [2] turned out to be 5.35 nM; on CLK1 it was 0.83 nM; at CLK2, 0.42 nM; on CLK3, 168 nM; at CLK4, 1.59 nM.
Take `CC(C)Oc1nn(CCO)c2c1/C=C/c1n[nH]c3ccc(cc13)-c1cnn(C)c1O[C@H](C)CN(C(C)C)C2` [Example 193, 2-{(10R,17E)-8,10-dimethyl-12-(propan-2-yl)-16-[(propan-2-yl)oxy]-2,8,10,11,12,13-hexahydro-14H-3,5-ethenotripyrazolo[3,4-f:3′,4′-j:4″,3″-n][1,4]oxazacyclopentadecin-14-yl}ethan-1-ol]: the 50% inhibitory concentration (IC50) on EGFR WT came to 90.1 nM; on EGFR (D770_N771insNPG), 77.3 nM; on EGFR Δ746-750 mutant it was 10.2 nM; in experiment [1] it was 5.92 nM; against EGFR L858R mutant, 36.6 nM; on EGFR L858R/T790M mutant, 2.42 nM. Moreover, the concentration for half-maximal inhibition (IC50) in experiment [2] was found to be 1.05 nM; on CLK1 it was 31.8 nM; on CLK2 it was 45.4 nM; on CLK3 it was 1000 nM; on CLK4 it was 21 nM.
Consider `CCOc1nn([C@@H](C)CO)c2c1/C=C/c1n[nH]c3ccc(cc13)-c1cnn(C)c1O[C@@H](C)CN(C)C2` [Example 155], for which the IC50 came to 1.74 nM at EGFR WT; 6.36 nM on EGFR (D770_N771insNPG); 0.62 nM on EGFR Δ746-750 mutant; 0.86 nM in experiment [1]; 0.34 nM against EGFR L858R mutant; 0.45 nM on EGFR L858R/T790M mutant. Besides, the IC50 in experiment [2] was determined as 0.62 nM; on CLK1, 0.43 nM; on CLK2, 0.14 nM; at CLK3 it was 87.4 nM; at CLK4, 0.81 nM.
With `CCOc1nn([C@@H](C)CO)c2c1/C=C/c1n[nH]c3cc(F)c(cc13)-c1cnn(C)c1O[C@H](C)CN(C(C)C)C2` [Example 229, (2S)-2-[(10R,17E)-16-ethoxy-19-fluoro-8,10-dimethyl-12-(propan-2-yl)-2,8,10,11,12,13-hexahydro-14H-3,5-ethenotripyrazolo[3,4-f:3′,4′-j:4″,3″- n][1,4]oxazacyclopentadecin-14-yl]propan-1-ol], the IC50 against EGFR WT is 24.8 nM; at EGFR (D770_N771insNPG), 38.6 nM; against EGFR Δ746-750 mutant it was 1.94 nM; in [1], 4.05 nM; at EGFR L858R mutant it was 7.1 nM; at EGFR L858R/T790M mutant, 4.07 nM. For the same compound, the IC50 turned out to be 1.24 nM in experiment [2]; 131 nM at CLK1; 59.6 nM at CLK2; 1000 nM on CLK3; 68.5 nM at CLK4.
Turning to `Cc1nn(C)c2c1/C=C/c1n[nH]c3ccc(cc13)-c1cnn(C)c1O[C@@H](C)CN(C1CC1)C2` [Example 161, (10S,17E)-12-cyclopropyl-8,10,14,16-tetramethyl-2,10,11,12,13,14-hexahydro-8H-3,5-ethenotripyrazolo[3,4-f:3′,4′-j:4″,3″-n][1,4]oxazacyclopentadecine], the IC50 worked out at 171 nM against EGFR WT; 191 nM on EGFR (D770_N771insNPG); 20 nM on EGFR Δ746-750 mutant; 13.5 nM in experiment [1]; 47.1 nM on EGFR L858R mutant; 3.1 nM at EGFR L858R/T790M mutant. The IC50 in experiment [2] was determined as 1.4 nM; on CLK1, 0.27 nM; at CLK2, 0.14 nM; at CLK3, 164 nM; at CLK4 it was 0.57 nM.
